Results published in the supplement of paper PMC8149375.

How the values were obtained:
Conditions in all cases: treatment: drug alone; 5 days
CAKI-1 [1] = assay: GI50, drug alone; higher = less potent
Experimental: (§1)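 Primary HTS: 8 RCC cell lines treated with 8 doses (up to 10 uM) of each library drug alone for 5 days; viability read by CellTiter-Glo and normalised to DMSO. GI50 was fitted with XLfit (4-parameter), AUC is the area under the dose-response curve, and minimum viability is the lowest fraction of DMSO viability across doses.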

769-P [2] = assay: GI50, drug alone; higher = less potent
Experimental: as §1

TK-10 [3] = assay: GI50, drug alone; higher = less potent
Experimental: as §1

UO-31 [4] = assay: GI50, drug alone; higher = less potent
Experimental: as §1

786-O [5] = assay: GI50, drug alone; higher = less potent
Experimental: as §1

SN12C [6] = assay: GI50, drug alone; higher = less potent
Experimental: as §1

A498 [7] = assay: GI50, drug alone; higher = less potent
Experimental: as §1

ACHN [8] = assay: GI50, drug alone; higher = less potent
Experimental: as §1

CAKI-1 [9] = assay: AUC of dose-response viability curve, drug alone (arbitrary (AUC of normalised viability)); higher = less growth inhibition
Experimental: as §1

769-P [10] = assay: as above
Experimental: as §1

TK-10 [11] = assay: as above
Experimental: as §1

UO-31 [12] = assay: as above
Experimental: as §1

786-O [13] = assay: as above
Experimental: as §1

SN12C [14] = assay: as above
Experimental: as §1

A498 [15] = assay: as above
Experimental: as §1

ACHN [16] = assay: as above
Experimental: as §1

CAKI-1 [17] = assay: minimum viability across doses, drug alone, relative to DMSO (fraction); higher = less growth inhibition
Experimental: as §1

769-P [18] = assay: as above
Experimental: as §1

TK-10 [19] = assay: as above
Experimental: as §1

UO-31 [20] = assay: as above
Experimental: as §1

786-O [21] = assay: as above
Experimental: as §1

SN12C [22] = assay: as above
Experimental: as §1

A498 [23] = assay: as above
Experimental: as §1

ACHN [24] = assay: as above
Experimental: as §1

| SMILES | GI50, drug alone (CAKI-1 [1]) [µM] | GI50, drug alone (769-P [2]) [µM] | GI50, drug alone (TK-10 [3]) [µM] | GI50, drug alone (UO-31 [4]) [µM] | GI50, drug alone (786-O [5]) [µM] | GI50, drug alone (SN12C [6]) [µM] | GI50, drug alone (A498 [7]) [µM] | GI50, drug alone (ACHN [8]) [µM] | AUC of dose-response viability curve (CAKI-1 [9]) | AUC of dose-response viability curve (769-P [10]) | AUC of dose-response viability curve (TK-10 [11]) | AUC of dose-response viability curve (UO-31 [12]) | AUC of dose-response viability curve (786-O [13]) | AUC of dose-response viability curve (SN12C [14]) | AUC of dose-response viability curve (A498 [15]) | AUC of dose-response viability curve (ACHN [16]) | minimum viability across doses (CAKI-1 [17]) | minimum viability across doses (769-P [18]) | minimum viability across doses (TK-10 [19]) | minimum viability across doses (UO-31 [20]) | minimum viability across doses (786-O [21]) | minimum viability across doses (SN12C [22]) | minimum viability across doses (A498 [23]) | minimum viability across doses (ACHN [24]) |
| --- | --- | --- | --- | --- | --- | --- | --- | --- | --- | --- | --- | --- | --- | --- | --- | --- | --- | --- | --- | --- | --- | --- | --- | --- |
| COc1ccc(COc2cc3oc(=O)c4cc(C(C)O)ccc4c3cc2OC)cc1 (configuration not stated) [Palomid 529] | > 10 | > 10 | > 10 | > 10 | 5.75 | > 10 | > 10 | > 10 | 3.57 | 3.39 | 2.69 | 5.25 | 2.56 | 3.3 | 4.44 | 3.5 | 0.668 | 0.854 | 0.633 | 1.2 | 0.251 | 0.844 | 1.12 | 0.893 |
| Cc1ccc(Nc2nccc(N(C)c3ccc4c(C)n(C)nc4c3)n2)cc1S(N)(=O)=O.Cl [Pazopanib HCl] | 6.83 | > 10 | > 10 | > 10 | < 0.003 | 5.96 | > 10 | 5.26 | 3.09 | 3.18 | 3.14 | 4.39 | 2.85 | 3.1 | 3.57 | 3.21 | 0.0579 | 0.207 | 0.661 | 0.63 | 0.427 | 0.193 | 0.514 | 0.224 |
| CCOc1cc2ncc(C#N)c(Nc3ccc(F)c(Cl)c3)c2cc1NC(=O)/C=C/CN(C)C [Pelitinib (EKB-569)] | 0.209 | 0.357 | 0.161 | 1.08 | 0.589 | 0.995 | 2.19 | 0.0629 | 1.87 | 2.02 | 1.75 | 3.24 | 2.08 | 2.38 | 2.96 | 1.41 | 0.0302 | 0.0352 | 0.01 | 0.027 | 0.00469 | 0.0102 | 0.0185 | 0.00498 |
| Cl.N=C(N)NC(=N)NCCc1ccccc1 [Phenformin hydrochloride] | > 10 | > 10 | 6.89 | 3.09 | 1.5 | 5.25 | > 10 | > 10 | 3.22 | 3.29 | 2.95 | 3.11 | 2.31 | 2.87 | 3.42 | 3.53 | 0.821 | 0.841 | 0.333 | 0.0295 | 0.116 | 0.0912 | 0.514 | 0.682 |
| Oc1cc(O)cc(/C=C/c2ccc(O)c(O)c2)c1 [Piceatannol] | 7.74 | > 10 | > 10 | > 10 | 2.37 | > 10 | > 10 | > 10 | 3.58 | 2.35 | 3.2 | 5.06 | 2.54 | 3.18 | 4.25 | 3.28 | 0.33 | 0.849 | 0.685 | 0.908 | 0.383 | 0.712 | 1.05 | 0.67 |
| Br.Cc1ccc(C(=O)Cn2c3c(sc2=N)CCCC3)cc1 [Pifithrin-α] | > 10 | > 10 | > 10 | > 10 | > 10 | > 10 | > 10 | > 10 | 3.26 | 3.5 | 2.84 | 3.69 | 1.95 | 3.09 | 4.11 | 3.14 | 0.871 | 0.918 | 0.636 | 0.864 | 0.385 | 0.76 | 0.946 | 0.743 |
| Nc1cccc2c1C(=O)N(C1CCC(=O)NC1=O)C2=O (configuration not stated) [Pomalidomide] | > 10 | > 10 | > 10 | > 10 | 0.00888 | > 10 | > 10 | > 10 | 3.49 | 3.35 | 3.12 | 3.85 | 2 | 3.38 | 3.01 | 3.14 | 0.924 | 0.887 | 0.818 | 1.01 | 0.424 | 0.884 | 0.732 | 0.85 |
| O=c1c(O)c(-c2ccc(O)c(O)c2)oc2cc(O)cc(O)c12 [Quercetin (Sophoretin)] | > 10 | > 10 | > 10 | > 10 | > 10 | > 10 | > 10 | > 10 | 3.2 | 3.3 | 3.01 | 3.57 | 2.36 | 3.13 | 3.6 | 3.48 | 0.861 | 0.784 | 0.736 | 0.807 | 0.53 | 0.821 | 0.923 | 0.899 |
| CC(C)(C)c1cc(NC(=O)Nc2ccc(-c3cn4c(n3)sc3cc(OCCN5CCOCC5)ccc34)cc2)no1 [Quizartinib (AC220)] | 2.62 | 4.3 | > 10 | > 10 | 1.36 | > 10 | > 10 | 3.48 | 2.38 | 2.98 | 2.84 | 5.25 | 2.76 | 3.25 | 4.53 | 2.72 | 0.408 | 0.234 | 0.612 | 1.16 | 0.129 | 0.819 | 1.07 | 0.381 |
| COc1cc(Nc2ncc(F)c(Nc3ccc4c(n3)NC(=O)C(C)(C)O4)n2)cc(OC)c1OC [R406(free base)] | 1.26 | 9.62 | 4.07 | 8.51 | 1.59 | 3.89 | > 10 | 1.42 | 2.61 | 3.13 | 2.44 | 4.5 | 2.21 | 2.79 | 4.42 | 2.35 | 0.142 | 0.474 | 0.396 | 0.0454 | 0.128 | 0.359 | 1 | 0.306 |
| COc1cc(Nc2ncc(F)c(Nc3ccc4c(n3)NC(=O)C(C)(C)O4)n2)cc(OC)c1OC.O=S(=O)(O)c1ccccc1 [R406] | 1.33 | > 10 | 9.02 | 8.77 | 2.01 | 4.6 | > 10 | 5.85 | 2.59 | 3.1 | 2.85 | 2.59 | 2.46 | 3.11 | 3.57 | 2.94 | 0.183 | 0.536 | 0.479 | 0.164 | 0.221 | 0.336 | 0.882 | 0.451 |
| COc1cc(Nc2ncc(F)c(Nc3ccc4c(n3)N(COP(=O)(O)O)C(=O)C(C)(C)O4)n2)cc(OC)c1OC [R788 (Fostamatinib)] | 0.913 | 3.5 | 3.3 | 6.02 | 1.16 | 2.98 | > 10 | 1.22 | 2.49 | 2.94 | 2.64 | 4.78 | 2.54 | 2.79 | 4.24 | 2.73 | 0.0246 | 0.145 | 0.308 | 0.00902 | 0.158 | 0.287 | 1.06 | 0.0584 |
| FC(F)(F)c1ccc(Nc2nc3cc(Oc4ccnc(-c5ncc(C(F)(F)F)[nH]5)c4)ccc3[nH]2)cc1 [Raf265 derivative] | 9.39 | 9.97 | > 10 | 1.05 | 5.37 | > 10 | > 10 | 8.48 | 3.62 | 3.24 | 3.18 | 3.5 | 2.69 | 3.32 | 4.16 | 3.47 | 0.298 | 0.473 | 0.534 | 0.0014 | 0.141 | 0.651 | 1.04 | 0.142 |
| CO[C@H]1C[C@@H]2CC[C@@H](C)[C@@](O)(O2)C(=O)C(=O)N2CCCC[C@H]2C(=O)O[C@H]([C@H](C)C[C@@H]2CC[C@@H](O)[C@H](OC)C2)CC(=O)[C@H](C)/C=C(\C)[C@@H](O)[C@@H](OC)C(=O)[C@H](C)C[C@H](C)/C=C/C=C/C=C/1C [Rapamycin (Sirolimus)] | 0.358 | > 10 | > 10 | < 0.003 | < 0.003 | 1.76 | > 10 | 0.171 | 1.91 | 2.08 | 2.04 | 0.524 | 0.986 | 2.11 | 2.44 | 1.77 | 0.377 | 0.504 | 0.491 | 0.0503 | 0.211 | 0.557 | 0.547 | 0.38 |
| CNC(=O)c1cc(Oc2ccc(NC(=O)Nc3ccc(Cl)c(C(F)(F)F)c3)c(F)c2)ccn1 [Regorafenib (BAY 73-4506)] | 7.35 | > 10 | > 10 | 2.55 | > 10 | 8.24 | > 10 | 7.85 | 3.16 | 3.39 | 3.02 | 3.11 | 2.63 | 3.16 | 3.76 | 3.38 | 0.363 | 0.894 | 0.536 | 0.186 | 0.598 | 0.387 | 0.883 | 0.39 |
| CC[C@H](CO)Nc1nc(NCc2ccccc2)c2ncn(C(C)C)c2n1 [Roscovitine (Seliciclib, CYC202)] | > 10 | > 10 | > 10 | > 10 | 4.97 | > 10 | > 10 | 7.52 | 3.27 | 3.28 | 3.17 | 3.47 | 2.76 | 3.57 | 3.91 | 3.25 | 0.763 | 0.848 | 0.655 | 0.544 | 0.208 | 0.769 | 1.03 | 0.36 |
| Cn1cc(-c2ccc3nnc(Sc4ccc5ncccc5c4)n3n2)cn1 [SGX-523] | > 10 | > 10 | > 10 | > 10 | > 10 | > 10 | > 10 | > 10 | 3.18 | 3.22 | 3.06 | 3.83 | 2.77 | 3.21 | 3.75 | 3.23 | 0.806 | 0.776 | 0.775 | 1.01 | 0.56 | 0.746 | 0.855 | 0.725 |
| CS(=O)(=O)O.O=C(Nc1cccc(Cl)c1)Nc1ncc(CCNc2ncnc3ccsc23)s1 [SNS-314] | 0.0361 | 0.506 | > 10 | > 10 | 0.0504 | 1.75 | > 10 | 0.168 | 1.36 | 2.2 | 2.73 | 4.36 | 1.76 | 2.54 | 4.02 | 1.77 | 0.172 | 0.343 | 0.536 | 0.891 | 0.159 | 0.245 | 0.637 | 0.17 |
